Source: patent US20260364101A1, “OLEUROPEIN IN THE MANAGEMENT OF CANCER” (FUNDACIÓN MIGUEL SERVET, priority 2023, published 2026)
Entries after “also recorded” stand apart in the source; their conditions may differ.

Key:
Type in all cases: cell-based, mouse
MDSCs = experiment: ex vivo differentiated MDSCs treated with compound, marker expression by flow cytometry (FIG. 1a); settings: oleuropein 50 μM
Description: (§1) Immunosuppressive myeloid cell subsets resembling tumor-infiltrating subsets (g-MDSCs, m-MDSCs and TAMs) were differentiated from mouse bone marrow following published procedures using conditioning medium produced by LLC tumor cells stably expressing GMCSF and MCSF cells. g- and m-MDSCs were purified using the myeloid-derived suppressor cell isolation kit (Miltenyi Biotec, Bergisch, Germany) according to manufacturer's recommendations. MDSCs and TAMs were seeded with 500 nM BML-275 or 50 μM oleuropein and incubated for seven days.
(§2) Surface and intracellular staining were carried out as described before with the following fluorochrome-conjugated antibody clones: AF488 anti-CD49d (R1-2), PE anti-CD4 (GK1.5), APCanti-CD8(53-6.7), brilliant Violet 510™ anti-I-A/I-E (M5/114.15.2,PE/Cyanine7anti-Ly-6G (1A8), and APC anti-CD80 (16-10A1) (Biolegend), FITC anti-IL-12 (C15.6) and BV421 anti-IL-2 (JES6-5H4) (BD Bioscience), APC-Vio® 770 anti-Ly-6C (REA796), PE REAfinity™ anti-F4/80 (REA126), and APC anti-CD68 (REA886) (Miltenyi), PerCP-Cyanine5.5 Anti-Human/Mouse CD11b (M1/70) (Tonbo), and AF488 anti-IFNγ (Clone XMG1.2) (BD Pharmigen). For human cells, it was used the following fluorochrome-conjugated antibodies: PerCP-Cy5.5-anti-CD11b (integrina alfa M) (M1/70), Violet Fluor 450 anti-CD14 antibody (61D3) (Tonbo), PE anti-CD115 (CSF-1R) (9-4D2-1E4) (Biolegend), PE-Cy™7 anti-CD11c (Clone B-ly6) (BD Bioscience), and APC anti-HLA-DR (REA517) (Miltenyi).
Data were collected using the FACSCanto Flow Cytometer (BD Biosciences) for ex vivo and in vitro experiments at Navarrabiomed Biomedical Research Center and Cyroflex LX flow cytometer (Beckman Counter). Data were analyzed with Flowjo.

CD4 T cells = experiment: mixed lymphocyte reaction (MLR) with MDSCs as stimulator cells (FIG. 1c,d)
Description: MLR were carried out following standard procedures. Briefly, 100,000 MDSCs or TAMs from C57BL/6 mice were co-cultured in 96-well plates with 100,000 lymphocytes from BALB/c mice. Co-cultured cells were treated with 50 µM oleuropein and compared with control vehicle. After 5 days, T-lymphocyte activation, differentiation and proliferation were assessed by flow cytometry. T-cell activation and proliferation markers (Ki-67) and pro-inflammatory cytokine production (IL-2 and IFNγ) were evaluated by flow cytometry in CD4 and CD8 T cells as described before.
as §2

TAMCs = experiment: quantitative proteomics and Ingenuity Pathway Analysis of TAMCs (FIG. 2)
Description: as §1
(§3) A unique proteomic experiment was carried out with five biological replicates per sample (m-MDSC, g-MDSC and TAM). Cells were homogenized in a lysis buffer containing 7 M urea, 2 M thiourea 50 mM DTT. The homogenates were spun down at 14000 g for 1 h at 15 °C. Before proteomic analysis, protein extracts were diluted with Laemmli sample buffer in 100 μL and loaded into a 0.75 mm thick polyacrylamide gel with a 4% stacking gel casted over a 12.5% resolving gel. The run was stopped as soon as the front entered 3 mm into the resolving gel so that the whole proteome became concentrated in the stacking/resolving gel interface. Bands were stained with Coomassie Brilliant Blue, excised from the gel and protein enzymatic cleavage was carried out with trypsin (Promega; 1:20, w/w) at 37 °C for 16 h as previously described. Purification and concentration of peptides was performed using C18 Zip Tip Solid Phase Extraction (Millipore).
(§4) Peptide mixtures were separated by reverse phase chromatography using an UltiMate 3000 UHLPC System (Thermo Scientific) fitted with an Aurora packed emitter column (lonopticks, 25 cm×75 μm ID, 1.6 μm C18). Samples were first loaded for desalting and concentration into an Acclaim PepMap column (ThermoFisher, 0.5 cm×300 μm ID, 5 μm C18) packed with the same chemistry as the separating column. Mobile phases were 100% water 0.1% formic acid (FA) (buffer A) and 100% Acetonitrile 0.1% FA (buffer B). Column gradient was developed in a 120 min two step gradient from 5% B to 20% B in 90 min and 20% B to 32% B in 30 min. Column was equilibrated in 95% B for 10 min and 5% B for 20 min. During the whole process, the precolumn was in line with the column and the flow maintained all along the gradient at 300 nl/min. The column temperature was maintained at 40 °C using an integrated column oven (PRSO-V2, Sonation, Biberach, Germany) and interfaced online with the Orbitrap Exploris 480 MS. Spray voltage were set to 2 kV, funnel RF level at 40, and heated capillary temperature at 300 °C. For DDA experiments full MS resolutions were set to […] at m/z 200 and full MS AGC target was set to Standard with an IT mode Auto. Mass range was set to 375-1500. AGC target value for fragment spectra was set to Standard with a resolution of 15,000 and 3 seconds for cycle time. The intensity threshold was kept at 8E3. Isolation width was set at 1.4 m/z. Normalized collision energy was set at 30%. All data were acquired in centroid mode using positive polarity and peptide match was set to off, and isotope exclusion was on.
(§5) Raw files were processed with MaxQuant v1.6.17.0 using the integrated Andromeda Search engine. All data were searched against a target/decoy version of the mouse Uniprot Reference Proteome with March 2021 release. First search peptide tolerance was set to 20 ppm, main search peptide tolerance was set to 4.5 ppm. Fragment mass tolerance was set to 20 ppm. Trypsin was specified as enzyme, […] carbamidomethylation of cysteine was specified as fixed modification and peptide N-terminal acetylation, oxidation of methionine, deamidation of asparagine and glutamine and pyro-glutamate formation from glutamine and glutamate were considered variable modifications with a total of two variable modifications per peptide. […]

g-MDSC = experiment: quantitative proteomics and Ingenuity Pathway Analysis of g-MDSC
Description: as §1, §3, §4, §5

[1] = IPA, TAMCs, listed as Oleuropein

For `C/C=C1/[C@H](O[C@@H]2O[C@H](CO)[C@@H](O)[C@H](O)[C@H]2O)OC=C(C(=O)OC)[C@H]1CC(=O)OCCc1ccc(O)c(O)c1` [oleuropein], the “polarization of MDSCs” value (MDSCs) was “polarized MDSCs and TAMs into activated myeloid cells”, the IL-12 (MDSCs; MDSCs) was “significant increase” and the “T cell activation capacities” value (CD4 T cells; oleuropein-reprogrammed MDSCs and TAMs) was “enhanced T cell activation capacities”. The immune cell activation (CD4 T cells; particularly CD4 T cell activation) was “induces an immune cell activation”, the “CD4 T cell stimulation assessed by IFNγ and IL-2 production” value (CD4 T cells; treated MDSCs as stimulators, 5 days) was “potently stimulated” and the CD40 (TAMCs; IPA, TAMCs) was “down-regulated”. The “Fatty acid β-oxidation I signalling” value (TAMCs; IPA, TAMCs) was “up-regulated; also recorded: Regulated expression”, the IL-9 signalling (TAMCs; IPA, TAMCs) was “down-regulated” and the LXR/RXR signalling (TAMCs; IPA, TAMCs) was “up-regulated; also recorded: Regulated expression”. The RAN signalling (TAMCs; IPA, TAMCs) was “down-regulated”, the TREM1 (TAMCs; IPA, TAMCs) was “inhibition; also recorded: inhibited” and the “cyclic adenosine monophosphate (cAMP) pathway” value (TAMCs; IPA, TAMCs) was “inhibition; also recorded: inhibited”. For the same molecule, the estrogen signalling (TAMCs; IPA, TAMCs) was “downregulated”, the “global reprogramming of TAMCs / immunosuppressive pathways” value (TAMCs; IPA, TAMCs) was “major reprogramming of intracellular pathways; also recorded: reprograms the immunosuppressive properties of TAMCs; also recorded: major global reprogramming of TAMCs by deactivating immunosuppressive pathways” and the insulin signalling (TAMCs; IPA, TAMCs) was “downregulated”. For the same molecule, the “pathways regulating lipid metabolism (Sirtuin, polyamines, PPAR-a/RXR-a)” value (TAMCs; IPA, TAMCs) was “altered”, the TREM1 (TAMCs; [1]) was “reduced” and the “cyclic adenosine monophosphate (cAMP) pathway” value (TAMCs; [1]) was “down-regulated”. The proteomic profile (TAMCs; oleuropein-treated vs untreated, FDR<1%) was “distinct proteomic profiles”, the AMPK signaling (g-MDSC; IPA, g-MDSC) was “upregulation” and the EIF2 signalling (g-MDSC; IPA, g-MDSC) was “downmodulated”. The NET signaling (g-MDSC; IPA, g-MDSC) was “upregulation”, the estrogen receptor signalling (g-MDSC; IPA, g-MDSC) was “downmodulated” and the fatty acid beta-oxidation (g-MDSC; IPA, g-MDSC) was “activated”. For the same molecule, the fmIP signaling (g-MDSC; IPA, g-MDSC) was “upregulation”, the “granzyme A signalling” value (g-MDSC; IPA, g-MDSC) was “downmodulated” and the mTOR signaling (g-MDSC; IPA, g-MDSC) was “upregulation”. The phospholipids (g-MDSC; IPA, g-MDSC) was “decrease”, the “upstream regulator E2f3” value (g-MDSC; IPA, g-MDSC) was “decrease” and the “upstream regulator Eif6” value (g-MDSC; IPA, g-MDSC) was “increase”. The “upstream regulator Stat4” value (g-MDSC; IPA, g-MDSC) was “inhibited”, the “upstream regulator Tbk1” value (g-MDSC; IPA, g-MDSC) was “inhibited” and the “cellular programming / proteome of g-MDSC” value (g-MDSC; g-MDSC treated with oleuropein) was “acquiring an entirely different proteome”. For the same molecule, the “differentiation of myeloid cells to g-MDSC” value (g-MDSC; g-MDSC treated with oleuropein) was “prevented”.
